Here are results for two compounds from PMC7665585, “Antidepressive effect of an inward rectifier K^+ channel blocker peptide, tertiapin-RQ” (PLoS ONE, 2020).

What is called IC50 is the midpoint of a concentration-inhibition curve.

Read-outs that look alike come from different tables or passages of the source. Bridge positions count the residues as written; N and C are the ends. Peptide text beside a SMILES is read from it.

One data set concerns the target T1, rat ROMK (Rattus norvegicus, UniProt P35560).
T1 construct: expressed in transfected cells; host or cells: 293T cell line 208-4 (lentiviral transduction, GFP coexpressed)
T1 sequence (P35560 1-391): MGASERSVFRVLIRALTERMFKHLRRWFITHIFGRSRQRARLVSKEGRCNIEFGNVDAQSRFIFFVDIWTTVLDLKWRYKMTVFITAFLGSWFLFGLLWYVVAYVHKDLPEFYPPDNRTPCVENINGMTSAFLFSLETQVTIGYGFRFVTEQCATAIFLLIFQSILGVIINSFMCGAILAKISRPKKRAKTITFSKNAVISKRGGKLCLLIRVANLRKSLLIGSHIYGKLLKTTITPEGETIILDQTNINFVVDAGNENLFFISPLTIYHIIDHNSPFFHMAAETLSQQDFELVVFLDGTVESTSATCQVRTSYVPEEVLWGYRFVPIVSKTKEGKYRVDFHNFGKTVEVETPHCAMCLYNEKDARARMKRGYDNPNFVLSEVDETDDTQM
Put plainly: Whole-cell patch-clamp of ROMK currents in 208–4 cells. The conditions noted are these: for inhibition at 1 µM: blockade at 1 μM estimated from fitted Hill curve (four parameters), n = 3–6, read-out: Activity (ROMK channel blocking activity, percentage of blockade at 1 μM); for IC50: 25°C. The class given is cell-based. In short, it runs like this:
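ROMK stably expressed in 208–4 cells; GIRK transiently in 293T, recorded 24 h post-transfection; 25°C, Tyrode (high-K+ 50 mM for GIRK), K-aspartate/KCl pipette with 3 mM MgATP. Steps −150 to 10 mV from −70 mV; currents 60 s after peptide; conductance from I-V slope −140 to −100 mV, Ba2+-resistant current subtracted, normalized to 0 μM TPN.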

Data set [1] relates to Male ICR mice. Put plainly: Elevated plus-maze (EPM). It counts as in vivo, mouse. The conditions noted are these: i.c.v., 5 min. As to the method: (§1) We performed mouse behavioral experiments in accordance with our previous study. Male ICR mice (n = 199 in total) aged 5 weeks old were purchased from Shimizu Laboratory Supplies (Kyoto, Japan) and maintained in an animal facility for 7–12 days. They had free access to food and water and were kept in a 12-h light/dark cycle (08:00–20:00). Experiments were carried out between 11:00 and 17:00 in a quiet and air-conditioned experimental room, to which mice were habituated for 30–60 min before each experiment. Animal experiments were performed in accordance with the guidelines of the Physiological Society of Japan and were approved by the Committee for Animal Experiments of Kurashiki University of Science and the Arts. Peptides were dissolved in phosphate-buffered saline (PBS). Peptides were injected intracerebroventricularly (i.c.v.) 30 min before behavioral tests (typically 5 μL/mouse), according to a previous study. The mouse was placed into an anesthetizing jar, to which isoflurane (0.2 mL) was added immediately before. […]
The elevated plus maze (EPM) apparatus consisted of four arms set in a cross pattern from a neutral central square (6 × 6 cm). […] The total number of entries to open arms and time spent in the open arms was measured. […]

Data set [2] relates to Male ICR mice. Put plainly: Forced swim test (FST). The class given is in vivo, mouse. The conditions noted are these: i.c.v., 30 min before test, last 4 min of 6 min. On the procedure: as §1
The forced swim test (FST) was performed in accordance with the method reported previously. […] The mouse was allowed to swim for 6 min and its activity was measured. […]

Data set [3] in a line: Chemical stability in mouse serum by HPLC. The class given is in vitro ADME. Conditions: 33.0 μM peptide mixed with equal volume of mouse serum, 37°C, 30 min; cation-exchange HPLC (HiTrap-SP), A230 nm. On the procedure:
For the examination of the chemical stability, the peptide was analyzed with high-performance liquid chromatography (HPLC, JASCO, Tokyo, Japan) using a cation-exchange column (HiTrap-SP, Cytiva). TPN-RQ 33.0 μM, which was mixed with an equal volume of PBS or mouse serum, was analyzed with HPLC immediately after mixing or after incubation at 37°C for 30 min. Peptides were eluted with a gradient of NaCl from 200 to 2,000 mM in 10 mM Tris-HCl (pH 7.4), monitoring A230 nm with a UV detector (JASCO).

In the case of `CC[C@H](C)[C@@H]1NC(=O)[C@H](CCCNC(=N)N)NC(=O)[C@H](CC(N)=O)NC(=O)[C@@H]2CSSC[C@@H](C(=O)NCC(=O)N[C@@H](CCCCN)C(=O)N[C@@H](CCCCN)C(N)=O)NC(=O)[C@H](CCCCN)NC(=O)[C@H](CCCCN)NC(=O)[C@H](Cc3c[nH]c4ccccc34)NC(=O)[C@H](CSSC[C@H](NC(=O)[C@H](CC(C)C)NC(=O)[C@H](C)N)C(=O)N[C@@H](CC(N)=O)C(=O)N2)NC(=O)[C@H](CCC(N)=O)NC(=O)[C@H](CC(C)C)NC(=O)[C@@H]2CCCN2C(=O)[C@H]([C@@H](C)CC)NC(=O)[C@H]([C@@H](C)CC)NC1=O` [Peptide 3, TPN-LQ] (H-ALCNCNRIIIPLQCWKKCGKK-NH2; disulfide 3-14, 5-18; N-terminus and C-terminus assumed), the inhibition at 1 µM on rat ROMK (whole-cell conductance) is 60 to 80%. In the data set with Male ICR mice [1], the “number of entries to the open arms in EPM” value is reported as “decreased” and the “time spent in the open arms in EPM” value is recorded as “decreased”. Moreover, the “immobile time in FST” value in the data set on Male ICR mice [2] is given as “decreased the immobile time”.

As for `CC[C@H](C)[C@@H]1NC(=O)[C@H](CCCNC(=N)N)NC(=O)[C@H](CCCNC(=N)N)NC(=O)[C@H](CC(N)=O)NC(=O)[C@@H]2CSSC[C@@H](C(=O)NCC(=O)N[C@@H](CCCCN)C(=O)N[C@@H](CCCCN)C(N)=O)NC(=O)[C@H](CCCCN)NC(=O)[C@H](CCCCN)NC(=O)[C@H](Cc3c[nH]c4ccccc34)NC(=O)[C@H](CSSC[C@H](NC(=O)[C@H](CC(C)C)NC(=O)[C@H](C)N)C(=O)N[C@@H](CC(N)=O)C(=O)N2)NC(=O)[C@H](CCC(N)=O)NC(=O)[C@H](Cc2c[nH]cn2)NC(=O)[C@@H]2CCCN2C(=O)[C@H]([C@@H](C)CC)NC1=O` [Peptide 2, TPN-RQ] (H-ALCNCNRRIIPHQCWKKCGKK-NH2; disulfide 3-14, 5-18), the inhibition at 1 µM on rat ROMK (whole-cell conductance) was above 80%. For the same compound, the IC50 at rat ROMK (peptide pre-treated with protein disulfide isomerase, 30 min, n = 4 (Fig 2F), read-out: IC50, ROMK current, PDI-treated peptide) was determined as 240 nM; at rat ROMK (whole-cell conductance, 60 sec after application, n = 3 (Fig 2E), read-out: IC50, ROMK current), 170 nM. Besides, the “chemical stability in mouse serum (HPLC peak height and retention time)” value in data set [3] is given as “No changes in the peak height or retention time”.
